Legend:
Assay type in all cases: cell-based, zebrafish (Danio rerio)
ZFL cells [1] = assay: alamarBlue (AB) assay, cytotoxicity; conditions: for EC10 (10% loss of cell viability): 24 h exposure, mean ± SD of three experiments; for EC50: read-out: EC50 (50% loss of cell viability), 24 h exposure, mean ± SD of three experiments
Description: (§1) Each compound was dissolved in dimethyl sulfoxide (DMSO) and diluted in a way that all stock solutions were 200 times concentrated compared to the final test concentrations. Concentration ranges were 30 pM-1.97 μM for BaP, 5 nM-5 μM for Flus, 5 nM-11 μM for Tam, and 0.2–43 μM for 4-OHT, which is in the range of in vivo studies with waterborne exposure of zebrafish for BaP, Tam, and 4-OHT [20-22, 29]. For Flusilazole, no studies on fish are available.
(§2) For finding the optimal biological test conditions, in the beginning different cell densities were applied using two-fold dilution series in the range of 780–100,000 cells/well and cell viability tests were performed after 24 h. […] Thus, cells were plated in 96 well flat-bottom plates at an initial cell density of 25,000 cells/well in 200 μL of medium and allowed to settle for 24 h. In parallel, wells containing only medium without cells were prepared and used later on for background correction. After the pre-incubation period, for each test compound and each concentration, 1 μL of the DMSO stock solutions was added so that the final DMSO content was 0.5%. All tests were performed at least three times and each time in triplicate.
(§3) The fluorogenic indicator dyes alamarBlue® (AB) (BioSource, Invitrogen) and CFDA-AM (5-carboxyfluorescein diacetate acetoxymethyl ester; Molecular Probes, Invitrogen) were used in combination on a third set of cells, since it was shown before that their fluorescent products can be detected at different non-interfering wavelengths. AB was obtained as ready-to-use stock solution, which had to be diluted 200 times to obtain the working solution. CFDA-AM powder was dissolved in DMSO to a stock solution of 4 mM, which was diluted 1000 times to reach the 4 μM working solution. […] For this purpose, cells were exposed to the dyes dissolved in culture medium without FBS or in Earle's-G medium. […] The AB/CFDA-AM assay was then performed according to [10]. In brief, after 24 h of incubation with the test compounds, the medium was aspirated off completely and 100 μL/well of the alamarBlue/CFDA-AM working solution were added. After 30 min of incubation, fluorescence was measured at 530 nm excitation/590 nm emission for AB and 485 nm/535 nm for CFDA-AM, respectively, using a fluorescence plate reader (Infinite 200, Tecan). For data evaluation, average values of triplicates were calculated after background correction and all average values for the treatments referred to the DMSO control, in order to express data as "% cytotoxicity".
(§4) For each single assay, data were evaluated separately for three independent experiments. Dose-response curves were fitted using a nonlinear-regression sigmoidal dose-response curve model provided in the GraphPad Prism software (GraphPad software, Inc., San Diego, USA). EC10 and EC50 values were derived from these fitted curves for the single experiments. Final EC-values (Table 1) were calculated as average of three independent experiments with the standard deviation of the mean indicating the variation. Data from the different assays were statistically compared using One way ANOVA analysis with Tukey's test as post-ANOVA analysis (p < 0.05).

ZFL cells [2] = assay: CFDA-AM assay, cytotoxicity; conditions: for EC10 (10% loss of cell viability): 24 h exposure, mean ± SD of three experiments; for EC50: read-out: EC50 (50% loss of cell viability), 24 h exposure, mean ± SD of three experiments
Description: as §1, §2, §3, §4

ZFL cells [3] = assay: MTT assay, cytotoxicity; conditions: for EC10 (10% loss of cell viability): 24 h exposure, mean ± SD of three experiments; for EC50: read-out: EC50 (50% loss of cell viability), 24 h exposure, mean ± SD of three experiments
Description: as §1, §2
The MTT assay was performed using the cell proliferation kit I MTT (Roche) according to the manufacturer's protocol. In brief, after 24 h of incubation with the test compounds, 100 μL of medium were removed from each well. Then, 10 μL of the MTT solution were added and plates incubated for 4 h at 28°C. Since the manufacturer recommends incubation at 37°C and ZFL cells have to be incubated at 28°C, we tested different incubation times with MTT (2, 4, and 6 h) to establish optimized conditions. […] After the incubation with MTT, the solubilization solution was added and plates incubated over night. The next day, absorption of the produced formazan was measured at 570 nm with 680 nm as reference wavelength using a microplate reader (Infinite 200, Tecan). For data evaluation, background and reference wavelength corrected absorption values were averaged for the triplicates and expressed as "% cytotoxicity" referring to the untreated control containing only the solvent DMSO.
as §4

ZFL cells [4] = assay: LDH assay (released lactate dehydrogenase activity), cytotoxicity; conditions: for EC10 (10% loss of cell viability): 24 h exposure, 1% FBS, mean ± SD of three experiments; for EC50: read-out: EC50 (50% loss of cell viability), 24 h exposure, 1% FBS, mean ± SD of three experiments
Description: as §1, §2
A second set of cells was exposed to the test compounds for the LDH assay, which was performed using the Cytotoxicity Detection Kit LDH (Roche). For this assay, a positive control, leading to 100% cytotoxicity by lysing the cells completely, was included in the assay. The positive control was 2% Triton X-100 solution in the assay medium, as proposed by the manufacturer. After pre-incubation of the cells, before addition of the test compounds, the growth medium was exchanged from medium containing 5% FBS to medium containing only 1% FBS. Then, test compounds in DMSO were dosed and plates incubated as for the other assays for 24 h. For testing the released LDH activity, 100 μL of culture medium were transferred to a new 96 well plate. 100 μL of the reaction solution from the kit, containing the detection dye and the catalyst were then added and absorption was measured after 30 min at 490 nm with 655 nm as reference wavelength in an ELISA reader (Model 680, Biorad). As for the other assays, background values from wells without cells were subtracted and average values for the triplicates calculated. Cytotoxicity was then calculated according to the following equation: Cytotoxicity (%) = (experimental value - DMSO control)/(positive control - DMSO control) × 100.
as §4

| SMILES | EC10 (10% loss of cell viability) (ZFL cells [1]) | EC50 (ZFL cells [1]) | EC10 (10% loss of cell viability) (ZFL cells [2]) | EC50 (ZFL cells [2]) | EC10 (10% loss of cell viability) (ZFL cells [3]) | EC50 (ZFL cells [3]) | EC10 (10% loss of cell viability) (ZFL cells [4]) | EC50 (ZFL cells [4]) | EC50 (ZFL cells [1]; Danio rerio) | EC50 (ZFL cells [2]; Danio rerio) | EC50 (ZFL cells [3]; Danio rerio) | EC50 (ZFL cells [4]; Danio rerio) |
| --- | --- | --- | --- | --- | --- | --- | --- | --- | --- | --- | --- | --- |
| CC/C(=C(\c1ccc(O)cc1)c1ccc(OCCN(C)C)cc1)c1ccccc1.Cl [4-OH-Tamoxifen, trans-4-Hydroxy-Tamoxifen] | 0.79 ± 0.40 µM | 1.17 ± 0.24 µM | 1.08 ± 0.62 µM | 1.73 ± 0.67 µM | 1.49 ± 0.82 µM | 1.78 ± 0.4 µM | 0.73 ± 0.55 µM | 1.62 ± 0.01 µM | – | – | – | – |
| C[Si](Cn1cncn1)(c1ccc(F)cc1)c1ccc(F)cc1 [Flusilazole] | 16.13 ± 11.44 µM | – | 6.49 ± 1.08 µM | – | 11.29 ± 5.88 µM | – | 2.28 ± 3.12 µM | – | 26.4 ± 7.3 µM | 16.7 ± 4.76 µM | 18.4 ± 14.1 µM | 17.4 ± 14.5 µM |
| CC/C(=C(\c1ccccc1)c1ccc(OCCN(C)C)cc1)c1ccccc1 [Tamoxifen] | 1.37 ± 0.33 µM | – | 2.52 ± 2.14 µM | – | 1.39 ± 0.77 µM | – | 0.61 ± 0.67 µM | – | – | – | – | – |
